# Test system: Fusarium culmorum
# Test: Activity against root rot caused by Fusarium culmorum (Fusacu), microtiter test
# Assay type: cell-based
# Details: 31 ppm; Fusarium culmorum spore suspension; 18° C.; 405 nm, 7 days after inoculation
structure (smiles),measurement,value
CC(C)CC#Cc1ccc(C(O)(Cn2cncn2)C(C)(C)C)cc1 (stereo not shown) [I.C-2],growth (relative growth of the pathogen vs active compound-free control = 100%),0%

# Reference: US10112913B2, “Substituted [1,2,4]triazole and imidazole compounds as fungicides” (BASF SE, priority 2014, dated 2018)
